ChEMBL document CHEMBL1671689, “Activity of ceftaroline against recent emerging serotypes of Streptococcus pneumoniae in the United States” (2010)

Key:
Type in all cases: functional
Streptococcus pneumoniae [1] = assay: Antimicrobial activity against Streptococcus pneumoniae serotype 19A by broth microdilution method in presence of beta-lactamase inhibitor clavulanic acid
Streptococcus pneumoniae [2] = assay: Antimicrobial activity against Streptococcus pneumoniae serotype 3 by broth microdilution method in presence of beta-lactamase inhibitor clavulanic acid
Streptococcus pneumoniae [3] = assay: Antimicrobial activity against Streptococcus pneumoniae serotype 35B by broth microdilution method in presence of beta-lactamase inhibitor clavulanic acid
Streptococcus pneumoniae [4] = assay: Antimicrobial activity against Streptococcus pneumoniae serotype 7F by broth microdilution method in presence of beta-lactamase inhibitor clavulanic acid
Streptococcus pneumoniae [5] = assay: Antimicrobial activity against Streptococcus pneumoniae serotype 11A by broth microdilution method in presence of beta-lactamase inhibitor clavulanic acid
Streptococcus pneumoniae [6] = assay: Antimicrobial activity against Streptococcus pneumoniae serotype 6C by broth microdilution method in presence of beta-lactamase inhibitor clavulanic acid
Streptococcus pneumoniae [7] = assay: Antimicrobial activity against multiple drug resistant Streptococcus pneumoniae serotype 19A by broth microdilution method in presence of beta-lactamase inhibitor clavulanic acid
Streptococcus pneumoniae [8] = assay: Antimicrobial activity against multiple drug resistant Streptococcus pneumoniae serotype 19F by broth microdilution method in presence of beta-lactamase inhibitor clavulanic acid
Streptococcus pneumoniae [9] = assay: Antimicrobial activity against multiple drug resistant Streptococcus pneumoniae serotype 6B by broth microdilution method in presence of beta-lactamase inhibitor clavulanic acid
Streptococcus pneumoniae [10] = assay: Antimicrobial activity against Streptococcus pneumoniae serotype 19A assessed as percent susceptible isolates by broth microdilution method in presence of beta-lactamase inhibitor clavulanic acid
Streptococcus pneumoniae [11] = assay: Antimicrobial activity against Streptococcus pneumoniae serotype 3 assessed as percent susceptible isolates by broth microdilution method in presence of beta-lactamase inhibitor clavulanic acid
Streptococcus pneumoniae [12] = assay: Antimicrobial activity against Streptococcus pneumoniae serotype 35B assessed as percent susceptible isolates by broth microdilution method in presence of beta-lactamase inhibitor clavulanic acid
Streptococcus pneumoniae [13] = assay: Antimicrobial activity against Streptococcus pneumoniae serotype 7F assessed as percent susceptible isolates by broth microdilution method in presence of beta-lactamase inhibitor clavulanic acid
Streptococcus pneumoniae [14] = assay: Antimicrobial activity against Streptococcus pneumoniae serotype 11A assessed as percent susceptible isolates by broth microdilution method in presence of beta-lactamase inhibitor clavulanic acid
Streptococcus pneumoniae [15] = assay: Antimicrobial activity against Streptococcus pneumoniae serotype 6C assessed as percent susceptible isolates by broth microdilution method in presence of beta-lactamase inhibitor clavulanic acid
Streptococcus pneumoniae [16] = assay: Antimicrobial activity against multiple drug resistant Streptococcus pneumoniae serotype 19A assessed as percent susceptible isolates by broth microdilution method in presence of beta-lactamase inhibitor clavulanic acid
Streptococcus pneumoniae [17] = assay: Antimicrobial activity against multiple drug resistant Streptococcus pneumoniae serotype 19F assessed as percent susceptible isolates by broth microdilution method in presence of beta-lactamase inhibitor clavulanic acid
Streptococcus pneumoniae [18] = assay: Antimicrobial activity against multiple drug resistant Streptococcus pneumoniae serotype 6B assessed as percent susceptible isolates by broth microdilution method in presence of beta-lactamase inhibitor clavulanic acid
Streptococcus pneumoniae [19] = assay: Antimicrobial activity against Streptococcus pneumoniae serotype 15A assessed as percent susceptible isolates by broth microdilution method in presence of beta-lactamase inhibitor clavulanic acid
Streptococcus pneumoniae [20] = assay: Antimicrobial activity against Streptococcus pneumoniae serotype 22F assessed as percent susceptible isolates by broth microdilution method in presence of beta-lactamase inhibitor clavulanic acid
Streptococcus pneumoniae [21] = assay: Antimicrobial activity against Streptococcus pneumoniae serotype 23A assessed as percent susceptible isolates by broth microdilution method in presence of beta-lactamase inhibitor clavulanic acid
Streptococcus pneumoniae [22] = assay: Antimicrobial activity against Streptococcus pneumoniae serotype 23B assessed as percent susceptible isolates by broth microdilution method in presence of beta-lactamase inhibitor clavulanic acid
Streptococcus pneumoniae [23] = assay: Antimicrobial activity against Streptococcus pneumoniae serotype 19F assessed as percent susceptible isolates by broth microdilution method in presence of beta-lactamase inhibitor clavulanic acid
Streptococcus pneumoniae [24] = assay: Antimicrobial activity against Streptococcus pneumoniae serotype 15A assessed as percent susceptible isolates by broth microdilution method
Streptococcus pneumoniae [25] = assay: Antimicrobial activity against Streptococcus pneumoniae serotype 19A by broth microdilution method
Streptococcus pneumoniae [26] = assay: Antimicrobial activity against Streptococcus pneumoniae serotype 3 by broth microdilution method
Streptococcus pneumoniae [27] = assay: Antimicrobial activity against Streptococcus pneumoniae serotype 35B by broth microdilution method
Streptococcus pneumoniae [28] = assay: Antimicrobial activity against Streptococcus pneumoniae serotype 7F by broth microdilution method
Streptococcus pneumoniae [29] = assay: Antimicrobial activity against Streptococcus pneumoniae serotype 11A by broth microdilution method
Streptococcus pneumoniae [30] = assay: Antimicrobial activity against Streptococcus pneumoniae serotype 6C by broth microdilution method
Streptococcus pneumoniae [31] = assay: Antimicrobial activity against multiple drug resistant Streptococcus pneumoniae serotype 19A by broth microdilution method
Streptococcus pneumoniae [32] = assay: Antimicrobial activity against multiple drug resistant Streptococcus pneumoniae serotype 19F by broth microdilution method
Streptococcus pneumoniae [33] = assay: Antimicrobial activity against multiple drug resistant Streptococcus pneumoniae serotype 6B by broth microdilution method
Streptococcus pneumoniae [34] = assay: Antimicrobial activity against Streptococcus pneumoniae serotype 19A assessed as percent susceptible isolates by broth microdilution method
Streptococcus pneumoniae [35] = assay: Antimicrobial activity against Streptococcus pneumoniae serotype 3 assessed as percent susceptible isolates by broth microdilution method
Streptococcus pneumoniae [36] = assay: Antimicrobial activity against Streptococcus pneumoniae serotype 35B assessed as percent susceptible isolates by broth microdilution method
Streptococcus pneumoniae [37] = assay: Antimicrobial activity against Streptococcus pneumoniae serotype 7F assessed as percent susceptible isolates by broth microdilution method
Streptococcus pneumoniae [38] = assay: Antimicrobial activity against Streptococcus pneumoniae serotype 11A assessed as percent susceptible isolates by broth microdilution method
Streptococcus pneumoniae [39] = assay: Antimicrobial activity against Streptococcus pneumoniae serotype 6C assessed as percent susceptible isolates by broth microdilution method
Streptococcus pneumoniae [40] = assay: Antimicrobial activity against multiple drug resistant Streptococcus pneumoniae serotype 19A assessed as percent susceptible isolates by broth microdilution method
Streptococcus pneumoniae [41] = assay: Antimicrobial activity against multiple drug resistant Streptococcus pneumoniae serotype 19F assessed as percent susceptible isolates by broth microdilution method
Streptococcus pneumoniae [42] = assay: Antimicrobial activity against multiple drug resistant Streptococcus pneumoniae serotype 6B assessed as percent susceptible isolates by broth microdilution method
Streptococcus pneumoniae [43] = assay: Antimicrobial activity against Streptococcus pneumoniae serotype 22F assessed as percent susceptible isolates by broth microdilution method
Streptococcus pneumoniae [44] = assay: Antimicrobial activity against Streptococcus pneumoniae serotype 23B assessed as percent susceptible isolates by broth microdilution method
Streptococcus pneumoniae [45] = assay: Antimicrobial activity against Streptococcus pneumoniae serotype 19F assessed as percent susceptible isolates by broth microdilution method
Streptococcus pneumoniae [46] = assay: Antimicrobial activity against Streptococcus pneumoniae serotype 23A assessed as percent susceptible isolates by broth microdilution method

CC1(C)S[C@@H]2[C@H](NC(=O)[C@H](N)c3ccc(O)cc3)C(=O)N2[C@H]1C(=O)O [AMOXICILLIN]
MIC50 (Streptococcus pneumoniae [1]): 8 µg/mL
MIC90 (Streptococcus pneumoniae [1]): 8 µg/mL
MIC (Streptococcus pneumoniae [2]): ≤ 1 µg/mL
MIC50 (Streptococcus pneumoniae [2]): ≤ 1 µg/mL
MIC90 (Streptococcus pneumoniae [2]): ≤ 1 µg/mL
MIC50 (Streptococcus pneumoniae [3]): 2 µg/mL
MIC90 (Streptococcus pneumoniae [3]): 4 µg/mL
MIC (Streptococcus pneumoniae [4]): ≤ 1 µg/mL
MIC50 (Streptococcus pneumoniae [4]): ≤ 1 µg/mL
MIC90 (Streptococcus pneumoniae [4]): ≤ 1 µg/mL
MIC (Streptococcus pneumoniae [5]): ≤ 1 µg/mL
MIC50 (Streptococcus pneumoniae [5]): ≤ 1 µg/mL
MIC90 (Streptococcus pneumoniae [5]): ≤ 1 µg/mL
MIC (Streptococcus pneumoniae [6]): ≤ 1 µg/mL
MIC50 (Streptococcus pneumoniae [6]): ≤ 1 µg/mL
MIC90 (Streptococcus pneumoniae [6]): ≤ 1 µg/mL
MIC50 (Streptococcus pneumoniae [7]): 8 µg/mL
MIC90 (Streptococcus pneumoniae [7]): 16 µg/mL
MIC50 (Streptococcus pneumoniae [8]): 8 µg/mL
MIC90 (Streptococcus pneumoniae [8]): 16 µg/mL
MIC50 (Streptococcus pneumoniae [9]): 8 µg/mL
MIC90 (Streptococcus pneumoniae [9]): 16 µg/mL
Activity (Streptococcus pneumoniae [10]): 45%
Activity (Streptococcus pneumoniae [11]): 100%
Activity (Streptococcus pneumoniae [12]): 62.7%
Activity (Streptococcus pneumoniae [13]): 62.7%
Activity (Streptococcus pneumoniae [14]): 98%
Activity (Streptococcus pneumoniae [15]): 100%
Activity (Streptococcus pneumoniae [16]): 8.1%
Activity (Streptococcus pneumoniae [17]): 8.1%
Activity (Streptococcus pneumoniae [18]): 8.1%
Activity (Streptococcus pneumoniae [19]): 100%
Activity (Streptococcus pneumoniae [20]): 100%
Activity (Streptococcus pneumoniae [21]): 100%
Activity (Streptococcus pneumoniae [22]): 100%
Activity (Streptococcus pneumoniae [23]): 37.9%
Activity (Streptococcus pneumoniae [24]): 100%

C[C@H]1COc2c(N3CCN(C)CC3)c(F)cc3c(=O)c(C(=O)O)cn1c23.C[C@H]1COc2c(N3CCN(C)CC3)c(F)cc3c(=O)c(C(=O)O)cn1c23.O [LEVOFLOXACIN]
MIC50 (Streptococcus pneumoniae [25]): 1 µg/mL
MIC90 (Streptococcus pneumoniae [25]): 1 µg/mL
MIC50 (Streptococcus pneumoniae [26]): 1 µg/mL
MIC90 (Streptococcus pneumoniae [26]): 1 µg/mL
MIC50 (Streptococcus pneumoniae [27]): 1 µg/mL
MIC90 (Streptococcus pneumoniae [27]): 1 µg/mL
MIC50 (Streptococcus pneumoniae [28]): 1 µg/mL
MIC90 (Streptococcus pneumoniae [28]): 1 µg/mL
MIC50 (Streptococcus pneumoniae [29]): 1 µg/mL
MIC90 (Streptococcus pneumoniae [29]): 2 µg/mL
MIC50 (Streptococcus pneumoniae [30]): 1 µg/mL
MIC90 (Streptococcus pneumoniae [30]): 1 µg/mL
MIC50 (Streptococcus pneumoniae [31]): 1 µg/mL
MIC90 (Streptococcus pneumoniae [31]): 1 µg/mL
MIC50 (Streptococcus pneumoniae [32]): 1 µg/mL
MIC90 (Streptococcus pneumoniae [32]): 1 µg/mL
MIC50 (Streptococcus pneumoniae [33]): 1 µg/mL
MIC90 (Streptococcus pneumoniae [33]): 1 µg/mL
Activity (Streptococcus pneumoniae [34]): 100%
Activity (Streptococcus pneumoniae [35]): 100%
Activity (Streptococcus pneumoniae [36]): 98.3%
Activity (Streptococcus pneumoniae [37]): 98.3%
Activity (Streptococcus pneumoniae [38]): 100%
Activity (Streptococcus pneumoniae [39]): 100%
Activity (Streptococcus pneumoniae [40]): 99.2%
Activity (Streptococcus pneumoniae [41]): 99.2%
Activity (Streptococcus pneumoniae [42]): 99.2%
Activity (Streptococcus pneumoniae [24]): 100%
Activity (Streptococcus pneumoniae [43]): 100%
Activity (Streptococcus pneumoniae [44]): 97%
Activity (Streptococcus pneumoniae [45]): 96.6%
Activity (Streptococcus pneumoniae [46]): 100%
